Where a SMILES comes first, the peptide text is derived from it. Bridges are numbered along the chain shown (N, C = ends).
Target: T1, Kv4.2 (Rattus norvegicus, UniProt Q63881)
T1 construct: expressed in transfected cells; host or cells: HEK293t
T1 sequence (Q63881 1-630): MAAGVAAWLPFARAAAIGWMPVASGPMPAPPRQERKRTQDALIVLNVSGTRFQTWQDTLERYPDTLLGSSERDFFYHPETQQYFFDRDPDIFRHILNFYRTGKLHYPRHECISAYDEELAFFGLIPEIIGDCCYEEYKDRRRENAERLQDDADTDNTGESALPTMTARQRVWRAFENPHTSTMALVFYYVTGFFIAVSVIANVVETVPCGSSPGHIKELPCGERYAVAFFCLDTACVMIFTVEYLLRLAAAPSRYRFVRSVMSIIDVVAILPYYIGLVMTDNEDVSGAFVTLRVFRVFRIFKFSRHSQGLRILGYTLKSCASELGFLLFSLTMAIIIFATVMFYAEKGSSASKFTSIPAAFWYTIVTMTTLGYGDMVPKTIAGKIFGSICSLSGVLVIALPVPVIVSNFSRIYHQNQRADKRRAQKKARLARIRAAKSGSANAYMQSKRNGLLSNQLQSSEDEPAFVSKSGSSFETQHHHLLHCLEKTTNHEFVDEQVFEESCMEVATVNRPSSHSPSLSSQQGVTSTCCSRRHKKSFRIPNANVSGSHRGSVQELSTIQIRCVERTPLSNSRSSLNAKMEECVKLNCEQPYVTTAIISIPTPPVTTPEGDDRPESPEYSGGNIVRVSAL
Assay: current-voltage relationship / activation, Kv4.2
Type: cell-based
Text: Rat cDNA genes encoding Kv4.2 (Accession: NM_031730.2) and Kv4.3 (Accession: AB003587.1) were subcloned to vector pcDNA3.1. In addition, human cDNA genes encoding Nav1.7 (Accession: DQ857292.1) and Nav1.5 (Accession: AB158469.2) were subcloned to vectors pcDNA3.1-mod and pcDNA3.1, separately. Then, Kv4.2, Kv4.3, Nav1.5 and Nav1.7 constructs were transiently transfected into the human embryonic kidney 293t (HEK293t) cells using lipofectamine 2000 (Invitrogen, USA) in accordance with manufacturer protocols. Thereafter, HEK293 cells were inoculated within Dulbecco’s modified Eagle’s medium (DMEM) containing 10% fetal bovine serum (FBS) at 5% CO2 and 37°C. The Kv4.3 channel and the Kv4.2 counterpart were then transfected in the absence of β subunit. Subsequently, cells were incubated with a DNA-lipofectamine mixture (one reporter plasmid for green fluorescence protein and channel constructs) for 4-6 h, and were washed with the fresh medium.
An EPC-10 patch-clamp amplifier (HEKA, Germany) was employed to record the potassium currents at the configuration of whole-cell patch-clamp under an ambient temperature of 22-25°C. The resistance was 2.0-3.0 MΩ when the recording pipette contained a full volume of internal solution (supplemented with 140 mM KCl, 10 mM HEPES, 2.5 mM MgCl2, 5 mM ATP and 11 mM EGTA). KOH was utilized to adjust the pH to 7.2, while sucrose was employed to adjust the osmolarity to 310 mOsm/L. The culture medium was replaced with an external solution containing 150 mM NaCl, 2.5 mM CaCl2, 10 mM HEPES, 2 mM MgCl2, 5 mM KCl, and 10 mM D-glucose. Similarly, sucrose and NaOH were applied to adjust the osmolarity to 330 mOsm/L and pH to 7.4. […] The series resistance was maintained at about 5 MΩ, with 65-70% compensation. Finally, the leakage currents and linear capacitance were subtracted digitally according to the P/4 protocol.
The voltage-dependent inhibition of Kv4.2 and Kv4.3 channels by JZTX-X was determined by the depolarizing pulses to potentials in 10 mV steps from −80 to +60 mV at an interval of 10 s and the holding potential of -80 mV. […] For quantifying the voltage-depending inhibition of Kv4.2 and Kv4.3 channels, the relative current was drawn based on the membrane potential. Under control conditions, those threshold potentials to initially activate Kv4.2 and Kv4.3 currents were around -40 mV. The JZTX-X treatment at 500 nM inhibited the Kv4.2 and Kv4.3 currents, and then the I-V relation shifted to the right by about 30 mV (from -39.5 ± 1.9 mV to -11.3 ± 1.2 mV ) and 40 mV (from -39.8 ± 1.5 mV to -2.5 ± 0.9 mV ), separately (Fig. 5C and D). Additionally, the channel conductance also shifted rightward by around 30 mV (data not shown).
Figure 5. Effects of JZTX-X on I-V relationships in Kv4.2 and Kv4.3 channels: Each cell was held at the voltage of -80 mV, and the […] current families were induced at the depolarization steps of 300 ms to different potentials (range, -80 mV to +60 mV at 10 mV increments). […] ( C ) and ( D ) represented I-V relation for Kv4.2 (C) and Kv4.3 (D) currents before (filled circles) and after 100 nM (open circles) or 500 nM (filled inverted triangles) JZTX-X treatment, respectively. ( E ) and ( F ) represented the fractional suppression on Kv4.2 (E) and Kv4.3 (F) currents after 100 nM (filled circles) and 500 nM (open circles) JZTX-X treatment, respectively. All data were expressed as mean ± S.E.M (n = 5-7 cells).

Structure (SMILES): CC(C)C[C@@H]1NC(=O)[C@H](CCCCN)NC(=O)[C@H](Cc2ccc(O)cc2)NC(=O)[C@@H]2CSSC[C@@H]3NC(=O)[C@H](Cc4ccc(O)cc4)NC(=O)[C@H](Cc4ccccc4)NC(=O)CNC(=O)[C@H](C)NC(=O)[C@H](CSSC[C@H](NC(=O)[C@@H](N)CC(C)C)C(=O)N[C@@H](CO)C(=O)N[C@@H](CCCNC(=N)N)C(=O)N[C@@H](CCC(=O)O)C(=O)NCC(=O)N[C@@H](CCC(=O)O)C(=O)N[C@@H](Cc4ccccc4)C(=O)N2)NC(=O)[C@H](CSSC[C@@H](C(=O)N[C@@H](Cc2ccc(O)cc2)C(=O)N[C@@H](CCCNC(=N)N)C(=O)N[C@@H](CC(N)=O)C(=O)O)NC(=O)[C@H](Cc2c[nH]cn2)NC(=O)[C@H](CC(C)C)NC(=O)[C@H](C(C)C)NC(=O)[C@H](Cc2ccccc2)NC(=O)[C@H](C)NC(=O)[C@H](CCCCN)NC3=O)NC(=O)[C@H](CCCCN)NC(=O)[C@H](CCCNC(=N)N)NC1=O [JZTX-X, Jingzhaotoxin-X] (H-LCSREGEFCYKLRKCCAGFYCKAFVLHCYRN-OH; disulfide 2-16, 9-21, 15-28; N-terminus assumed)
- reduction of Kv4.2 currents over voltage range (100 nM, -80 to +60 mV in 10 mV steps): reduced the currents of Kv4.2 channels throughout the whole voltage range
- I-V relation potential after toxin, Kv4.2 (500 nM, control -39.5 ± 1.9 mV, holding -80 mV, n = 5-7 cells): -11.3 ± 1.2 mV
- rightward shift of I-V relation, Kv4.2 (500 nM, holding -80 mV): about 30 mV
- rightward shift of channel conductance, Kv4.2 (data not shown, channel not named separately): about 30 mV
- voltage dependence of Kv4.2 inhibition (test potentials -10 to +60 mV, 100 nM and 500 nM): dependent on voltage

Source: paper PMC7269146, “Jingzhaotoxin-X, a gating modifier of Kv4.2 and Kv4.3 potassium channels purified from the venom of the Chinese tarantula Chilobrachys jingzhao” (The Journal of Venomous Animals and Toxins Including …, 2020)
